Results on eight compounds are retold here after article PMC9090415, “Discovery of small molecule inhibitors of Plasmodium falciparum apicoplast DNA polymerase” (Journal of Enzyme Inhibition and Medicinal Chemistry, 2022).

Each structure is given as a SMILES string.

For the assay, the target named is P. falciparum apicoplast DNA polymerase (Pf-apPOL) (Plasmodium falciparum, UniProt Q8ILY1). Briefly: Fluorescence-based high-throughput DNA polymerase assay (molecular beacon), primary screen and dose-response.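 As to % inhibition ApPOL 90': test concentration in µM.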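 As to % inhibition apPOL 180': test concentration in µM.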 Format: biochemical. Summed up:
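Single-point screening used 10 µM compound with 20 nM polymerase, 20 nM hairpin substrate and 6 µM dNTPs for 90 min at 25 °C. Confirmatory titrations (2.5–80 µM) followed fluorescence at three times, and IC50 was derived from a fit including a cooperativity term n.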

Setting [1] is: primary screen value of the 186 hits; unit not given; 90 min, 10 µM.
[2] abbreviates: supplemental file 2, sheet IC50 nontoxic compounds; Pf-apPOL.

P. falciparum apicoplast DNA polymerase (Pf-apPOL), sequence (Q8ILY1 entry or part of it): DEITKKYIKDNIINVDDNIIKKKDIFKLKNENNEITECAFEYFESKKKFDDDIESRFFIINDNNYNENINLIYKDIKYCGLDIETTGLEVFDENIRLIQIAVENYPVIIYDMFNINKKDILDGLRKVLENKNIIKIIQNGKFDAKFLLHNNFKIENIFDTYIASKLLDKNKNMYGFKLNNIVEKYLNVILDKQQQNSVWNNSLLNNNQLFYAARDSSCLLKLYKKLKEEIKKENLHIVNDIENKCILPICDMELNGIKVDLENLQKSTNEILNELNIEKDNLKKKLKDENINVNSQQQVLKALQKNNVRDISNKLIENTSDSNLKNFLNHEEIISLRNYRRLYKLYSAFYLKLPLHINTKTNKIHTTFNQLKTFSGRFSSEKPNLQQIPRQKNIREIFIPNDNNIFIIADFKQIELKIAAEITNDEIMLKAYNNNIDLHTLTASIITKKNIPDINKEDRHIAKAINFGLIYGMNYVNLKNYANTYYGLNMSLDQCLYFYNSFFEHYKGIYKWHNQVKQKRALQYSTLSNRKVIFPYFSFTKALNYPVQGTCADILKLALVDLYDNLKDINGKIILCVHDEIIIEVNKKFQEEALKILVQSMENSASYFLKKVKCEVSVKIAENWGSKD

For `COc1ccc(NC(=O)Cn2ccc3c(=O)[nH]ccc32)cc1Cl` [Molecule 10, COc1ccc(cc1Cl)NC(=O)Cn1ccc2c1cc[nH]c2=O], the “% inhibition Apo pol 10'” value was 12.1098% (DRC-1; 10'; concentration 2.5); 41.0198% (DRC-1; 10'; concentration 5); 64.5653% (DRC-1; 10'; concentration 10); 78.092% (DRC-1; 10'; concentration 20); 83.862% (DRC-1; 10'; concentration 40); 74.6013% (DRC-1; 10'; concentration 80). Also, the “% inhibition Apol 90'” value reads like this: (DRC-1; 90'; concentration 2.5) 1.658%; (DRC-1; 90'; concentration 5) 26.4531%; (DRC-1; 90'; concentration 10) 48.8726%; (DRC-1; 90'; concentration 20) 69.5261%; (DRC-1; 90'; concentration 40) 86.3942%; (DRC-1; 90'; concentration 80) 83.0123%. Further, the “% inhibition apPOL 180'” value reads like this: (DRC-1; 180'; concentration 2.5) -4.328%; (DRC-1; 180'; concentration 5) 12.6648%; (DRC-1; 180'; concentration 10) 30.7094%; (DRC-1; 180'; concentration 20) 56.2759%; (DRC-1; 180'; concentration 40) 85.5137%; (DRC-1; 180'; concentration 80) 84.9384%. Also, the “% inhibition apPOL 180'” value runs as follows: (DRC-2; 180'; concentration 2.5) 8%; (DRC-2; 180'; concentration 5) 34%; (DRC-2; 180'; concentration 10) 62%; (DRC-2; 180'; concentration 20) 70%; (DRC-2; 180'; concentration 40) 73%; (DRC-2; 180'; concentration 80) 67%. Moreover, the “% inhibition apPOL 180'” value (conc. 10; 180'; DRC-2) amounted to 62%. Also, the “% inhibition Apo pol 5'” value came to 22% (DRC-2; 5'; concentration 2.5); 37% (DRC-2; 5'; concentration 5); 48% (DRC-2; 5'; concentration 10); 44% (DRC-2; 5'; concentration 20); 37% (DRC-2; 5'; concentration 40); 19% (DRC-2; 5'; concentration 80). The “% inhibition Apo pol 5'” value (conc. 5; 5'; DRC-2) is reported as 37% and the “% inhibition Apo pol 5'” value (conc. 40; 5'; DRC-2) turned out to be 37%. For the same compound, the “% inhibition Apol 40'” value (DRC-2; 40'; concentration 2.5) is 23%; the “% inhibition Apol 40'” value (DRC-2; 40'; concentration 5) worked out at 47%; the “% inhibition Apol 40'” value (DRC-2; 40'; concentration 10) is on record as 64%; the “% inhibition Apol 40'” value (DRC-2; 40'; concentration 20) turned out to be 65%; the “% inhibition Apol 40'” value (DRC-2; 40'; concentration 40) turned out to be 62%; the “% inhibition Apol 40'” value (DRC-2; 40'; concentration 80) is reported as 51%. Also, the “% inhibition Apol 40'” value (conc. 40; 40'; DRC-2) amounted to 62%. Further, the “% inhibition ApPOL 90'” value reads like this: (DRC-2; 90'; concentration 2.5) 20%; (DRC-2; 90'; concentration 5) 45%; (DRC-2; 90'; concentration 10) 66%; (DRC-2; 90'; concentration 20) 69%; (DRC-2; 90'; concentration 40) 68%; (DRC-2; 90'; concentration 80) 59%. For the same compound, the “DNA Pol” value (primary screen value by plate and well; 90 min, 10 µM) was 78; the “DNA Pol” value under setting [1] was 78.
With `COc1ccc(-c2c(C(F)(F)F)nn3c(=O)cc(-c4cccc([N+](=O)[O-])c4)[nH]c23)cc1` [Molecule 16], the IC50 (as a rule, the concentration that inhibits the measured activity by half) under setting [2] worked out at 9.3 µM.
With `CO/N=C(\C(=O)N[C@@H]1C(=O)N2C(C(=O)O)=C(CSc3nc(=O)c(O)nn3C)CSC12)c1csc(N)n1` (stereo partly shown) [Molecule 83], under setting [2], the IC50 was found to be 18.7 µM.
With `COc1ccc(NC(=O)Cn2ccc3c(=O)[nH]ccc32)cc1Cl` [Molecule 10], the IC50 under setting [2] turned out to be 6.2 µM.
As to `COc1ccc(C)cc1NC(=O)Cn1ccc2c(=O)[nH]ccc21` [Molecule 15], the IC50 under setting [2] turned out to be 7.23 µM.
Consider `Cn1nc(C(=O)N2CCc3c(nc4cc(-c5ccccc5)[nH]n4c3=O)C2)c2ccccc21` [Molecule 18], for which, under setting [2], the IC50 came out at 6.38 µM.
Same read-out and setting: the value for `C=CC1=C(C)c2cc3[nH]c(cc4nc(cc5[nH]c(cc1n2)c(C)c5CCC(=O)O)C(CCC(=O)O)=C4C)c(C)c3C=C` [Molecule 91] was less than 2.5 µM.
For the compound `CCCN1COc2ccc3c(=O)c(-c4ccccc4)coc3c2C1` [KU0199556], the “% inhibition Apo pol 10'” value is 3.335% (DRC-1; concentration 2.5; 10'); 0.6816% (DRC-1; concentration 5; 10'); 12.2491% (DRC-1; concentration 10; 10'); 29.2216% (DRC-1; concentration 20; 10'); 57.482% (DRC-1; concentration 40; 10'); 71.548% (DRC-1; concentration 80 (unit not given); 10'). Further, the “% inhibition Apol 90'” value (DRC-1; concentration 2.5; 90') is 6.953%; the “% inhibition Apol 90'” value (DRC-1; concentration 5; 90') was 8.234%; the “% inhibition Apol 90'” value (DRC-1; concentration 10; 90') is 22.7546%; the “% inhibition Apol 90'” value (DRC-1; concentration 20; 90') was found to be 42.6091%; the “% inhibition Apol 90'” value (DRC-1; concentration 40; 90') turned out to be 69.5557%; the “% inhibition Apol 90'” value (DRC-1; concentration 80; 90') worked out at 77.7995%. The “% inhibition apPOL 180'” value was 12.8227% (DRC-1; concentration 2.5; 180'); 17.5775% (DRC-1; concentration 5; 180'); 37.4083% (DRC-1; concentration 10; 180'); 58.6511% (DRC-1; concentration 20; 180'); 84.4582% (DRC-1; concentration 40; 180'); 92.1066% (DRC-1; concentration 80; 180'). Also, the “% inhibition apPOL 180'” value is, setting by setting: (DRC-2; 180'; concentration 80) 39%; (DRC-2; concentration 2.5; 180') -2.43%; (DRC-2; concentration 5; 180') -84%; (DRC-2; concentration 10; 180') 6.45%; (DRC-2; concentration 20; 180') 22%; (DRC-2; concentration 40; 180') 38%. In addition, the “% inhibition apPOL 180'” value (DRC-2; concentration 80; 180') turned out to be 39%. In addition, the “% inhibition Apo pol 5'” value (DRC-2; 5'; concentration 80) came out at 51%; the “% inhibition Apo pol 5'” value (DRC-2; concentration 2.5; 5') worked out at 7.48%; the “% inhibition Apo pol 5'” value (DRC-2; concentration 5; 5') is 10%; the “% inhibition Apo pol 5'” value (DRC-2; concentration 10; 5') was 25%; the “% inhibition Apo pol 5'” value (DRC-2; concentration 20; 5') amounted to 41%; the “% inhibition Apo pol 5'” value (DRC-2; concentration 40; 5') turned out to be 52%. Besides, the “% inhibition Apo pol 5'” value (DRC-2; concentration 80; 5') is 51%. Moreover, the “% inhibition Apol 40'” value runs as follows: (DRC-2; 40'; concentration 80) 51%; (DRC-2; concentration 2.5; 40') 5%; (DRC-2; concentration 5; 40') 0.118%; (DRC-2; concentration 10; 40') 23%; (DRC-2; concentration 20; 40') 42%; (DRC-2; concentration 40; 40') 55%. Further, where the note is “DRC-2; concentration 80; 40'”, the “% inhibition Apol 40'” value stood at 51%. Further, the “% inhibition ApPOL 90'” value runs as follows: (DRC-2; 90'; concentration 20) 39%; (DRC-2; 90'; concentration 40) 51%; (DRC-2; concentration 2.5; 90') 3.57%; (DRC-2; concentration 5; 90') -8%; (DRC-2; concentration 10; 90') 20%; (DRC-2; concentration 20; 90') 39%. Besides, the “% inhibition ApPOL 90'” value is, setting by setting: (DRC-2; concentration 40; 90') 51%; (DRC-2; concentration 80; 90') 48%. Further, the “DNA Pol” value reads like this: under setting [1], 28; (primary screen value; head prints only 'DNA Pol'; 90 min, 10 µM) 28.
